Usually IC50 stands for the concentration that gives 50% inhibition.

Data on 98 compounds can be found in PubChem BioAssay AID2384 (Southern Research Specialized Biocontainment Screening …, 2010).

In the test the test system is S. typhi GFP reporter counter-screen, fluorescence, 4 h. The experiment in a line: inhibitors in S. typhi counter-screen strain, dose response, counter-screen for PhoP regulon inhibitor project, fluorescence, 4 h (AID 2384).

For `CCn1cc(C(=O)O)c(=O)c2cc(F)c(N3CCN(C(=S)NC(=O)c4cccc(F)c4)CC3)cc21`, the IC50 is 94.6 µM.
Next, `Cc1c2ccncc2c(C)c2c1[nH]c1ccccc12`: 21.2 µM; `Oc1c(C(Nc2ccccn2)c2cccnc2)cc(Cl)c2cccnc12` (stereo not drawn): 25.5 µM; `COc1ccc(Cc2nnc(N/N=C/c3ccc(O)cc3)[nH]c2=O)cc1OC`: 83 µM.
As for `O=C(Nc1ccc(Cc2ccncc2)cc1)c1ccc([N+](=O)[O-])o1`, the IC50 is 126 µM.
The same measure for `O=C(CC(=O)c1c(F)cccc1Cl)c1ccccc1O`: 42.9 µM.
For `OCCN1CCN(CCCN2c3ccccc3Sc3ccc(Cl)cc32)CC1`, the concentration for half-maximal inhibition (IC50) is 73.7 µM.
Next, `CCCCCOc1ccc(CSC(=N)N)cc1[N+](=O)[O-]`: 30.4 µM; `CCN1CCN(C(=O)Nc2ccc(Cc3ccc(NC(=O)N4CCN(CC)CC4)cc3)cc2)CC1`: 97.4 µM; `CNCCCCOc1ccc(C(C)(C)C)cc1Cl`: 58.2 µM.
The same measure for `CCCCCCCSc1cc(OC)c(CCNC)cc1OC`: 33.2 µM.
The same measure for `CN(C)CC/C=C1/c2cc(F)ccc2Sc2ccc(Cl)cc21`: 34.3 µM; for `c1ccc(-c2nc3ccccc3[nH]2)cc1`: 93.5 µM; for `CCCCCCCSc1cc(OC)c(CCN(C)C)cc1OC`: 30.7 µM.
Consider `COc1cccc(/C=N\NC(=O)Cn2nnc3ccccc32)c1O`, for which the IC50 was 94.6 µM.
On to `Fc1ccc([C@@H]2CCNC[C@H]2COc2ccc3c(c2)OCO3)cc1`, for which the 50% inhibitory concentration (IC50) is 19.2 µM.
Turning to `Nc1nc2ccccc2n1Cc1ccc(Cl)c(Cl)c1`, the IC50 was 74.7 µM.
Take `Cc1nc(N)nc(N)c1CCCc1ccc(Cl)c(Cl)c1`: the IC50 was 31.5 µM.
For `COc1cc(CNCCc2c[nH]c3ccccc23)ccc1OCc1ccccc1F`, the IC50 was 70.8 µM.
For the compound `CCN1CCCC1CNC(=O)c1cc2cc(F)ccc2[nH]1` (stereo not drawn), the IC50 is 19 µM.
Turning to `C[n+]1c2n(c3ccccc31)N=C(c1ccc(-c3ccccc3)cc1)CS2`, the IC50 is 26.4 µM.
Next, `CCCCCCCCCCOC(=O)C[N+](C)(C)CC1CCCCC1O` (stereo not drawn): 37.6 µM.
Next, `CCn1cc(C(=O)O)c(=O)c2cc3c(cc21)OCO3`: 80.8 µM.
The same measure for `Cc1ccc(C(C[N+](=O)[O-])n2nc(C)cc2C)cc1` (stereo not drawn): 27.1 µM; for `O=C(Nc1c(Cl)ccc2nsnc12)c1ccc([N+](=O)[O-])o1`: 137 µM; for `O=[N+]([O-])c1ccc(O)c2ncccc12`: 0.79 µM.
For the compound `CC1CCc2cc(F)cc3c(=O)c(C(=O)O)cn1c23` (stereo not drawn), the IC50 was 15.6 µM.
As for `CC[n+]1c(/C=C/C=C/c2ccc(N(C)C)cc2)sc2ccccc21`, the IC50 is 128 µM.
Next, `NC1CCN(c2nc3c(cc2F)c(=O)c(C(=O)O)cn3-c2ccc(F)cc2F)C1` (stereo not drawn): 1.53 µM; `O=C(CN1CC(c2ccccc2)CC1=O)N/N=C/c1cc(Br)ccc1O` (stereo not drawn): 40.2 µM; `CCOc1ccc(OCCSc2nc(C)cc(=O)[nH]2)cc1`: 149 µM.
Next, `Cc1ccc(C[n+]2c(-c3ccc(C)cc3)cc(-c3ccc(C)cc3)cc2-c2ccc(C)cc2)cc1`: 15.6 µM; `COc1cc(/C=C/[N+](=O)[O-])ccc1O`: 45 µM.
The same measure for `CCOC(=O)c1c(-c2ccc(-c3ccccc3)cc2)csc1NC(=O)CNCCN(C)C`: 82.7 µM; for `C#CCOCCOCCOCCNc1nc(N2CCN(C(=O)CCCCCCCCCCNC(=O)Cn3cc(CCCCCN)nn3)CC2)nc(N2CCN(C(=O)CCCCCCCCCCNC(=O)[C@H]([C@@H](C)CC)n3cc(CCCCN=C(N)N)nn3)CC2)n1`: 38.2 µM; for `CCCN1CCC(NCc2cn(C)nc2-c2ccc(Oc3ccccc3)cc2)CC1`: 85.4 µM.
Regarding `S=C(Nc1ccc(Cl)c(Cl)c1)NC1CCN(Cc2ccccc2)CC1`, the IC50 is 37.8 µM.
Next, `O=[N+]([O-])c1cc(CN2CCN(c3cccc(C(F)(F)F)c3)CC2)c2cccnc2c1O`: 23.1 µM.
Consider `O=C(/C=C/c1cccs1)NC(=S)NNC(=O)c1ccccc1O`, for which the IC50 was 26.1 µM.
Next, `O=C(Nc1nnc(-c2cccs2)o1)c1cccc(C(F)(F)F)c1`: 26.4 µM; `COc1cc(CNCCc2c[nH]c3ccccc23)ccc1OCc1ccc(F)cc1`: 37.6 µM.
Next, `COc1ccc(/C=N/Nc2cc(C)nc3ccc(Br)cc23)cc1`: 36.4 µM; `COc1cc(CNCCO)cc(Cl)c1OCc1ccc(Cl)cc1Cl`: 22.4 µM.
`C#CCOCCOCCOCCNc1nc(N2CCN(C(=O)CCCCCCCCCCNC(=O)Cn3cc(CCCCCN)nn3)CC2)nc(N2CCN(C(=O)CCCCCCCCCCNC(=O)[C@@H]([C@H](C)O)n3cc(C)nn3)CC2)n1`: the IC50 was 115 µM.
Next, `O=c1c(O)cccc2cc(O)c(O)c(O)c12`: 18.5 µM; `Cc1cc(NC(=O)c2ccc3[nH]c(C)c(C)c3c2)ccn1`: 65.5 µM; `CC(=O)NNC(=S)NC(=O)c1ccccc1`: 18 µM.
Next, `Cc1cc(C2CCCCC2)n(O)c(=O)c1`: 13.7 µM.
The same measure for `Oc1ccc(C[C@@H]2CNCCN2CCCCC2CCCCC2)cc1`: 37.5 µM.
Take `CN1CCN(CC(=O)N2CCn3c4c(c5cc(C6CCCCC6)ccc53)CCCC42)CC1` (stereo not drawn): the IC50 is 36.9 µM.
The same measure for `Nc1nonc1-n1nnc(C(=O)N/N=C/c2cc(Br)ccc2O)c1CSC1=NCCS1`: 24.1 µM; for `Cc1ccc2nc(N(CCCN(C)C)C(=O)c3sc4ccccc4c3Cl)sc2c1`: 24.3 µM.
Next, `CC[N+](C)(CC)CCC[n+]1c(-c2ccccc2)c2cc(N)ccc2c2ccc(N)cc21`: 128 µM; `O=C(CCN1CCOCC1)c1ccc(Br)cc1`: 72.5 µM.
Next, `CN1C(=O)NC(c2ccc(O)cc2)C(C(=O)c2cccs2)C1(O)C(F)(F)F` (stereo not drawn): 19.1 µM; `Clc1ccc(C[n+]2cc(-c3ccc(Cl)cc3)n3c2CCC3)cc1`: 37.7 µM; `CN(C)CCCOC(=O)c1sc2ccccc2c1Cl`: 68.6 µM.
As for `O=C(O)c1csc(-c2ccc(Cl)cc2)n1`, the IC50 was 120 µM.
Turning to `C#CCOCCOCCOCCNc1nc(N2CCN(C(=O)CCCCCCCCCCNC(=O)[C@H](CCCCN)n3cc(CCO)nn3)CC2)nc(N2CCN(C(=O)CCCCCCCCCCNC(=O)[C@H](CCCN=C(N)N)n3cc(C[C@@H](C)CC)nn3)CC2)n1`, the IC50 was 18.1 µM.
The same measure for `CCCCOc1ccc(Br)cc1CSC(=N)N`: 14.2 µM; for `CCN1CCN(C(=O)c2cc3ccc(OC)cc3[nH]2)CC1`: 34.1 µM; for `C#CCOCCOCCOCCNc1nc(N2CCN(C(=O)CCCCCCCCCCNC(=O)Cn3cc(C[C@@H](C)O)nn3)CC2)nc(N2CCN(C(=O)CCCCCCCCCCNC(=O)[C@@H]([C@H](C)CC)n3cc(CCCCCN)nn3)CC2)n1`: 141 µM.
The same measure for `CN(C)CCCn1c(SCC(=O)N2c3ccccc3Sc3ccccc32)nc2ccccc2c1=O`: 47.2 µM; for `O=C(Cc1ccccc1)NNC(=S)NC(=O)c1cccs1`: 32.3 µM.
As to `O=C(Oc1ccccc1)c1cc2ccccc2o1`, the IC50 is 97 µM.
As for `O=C(CC1NCCc2ccccc21)Nc1ccc(Oc2ccccc2)cc1` (stereo not drawn), the IC50 is 51 µM.
`Oc1ccc(CN2CCCc3ccccc32)c2cccnc12`: the IC50 was 57.2 µM.
For the compound `CCc1ccc(N2CC(C(=O)N/N=C/c3cc([N+](=O)[O-])ccc3O)CC2=O)cc1` (stereo not drawn), the IC50 was 48.7 µM.
For the compound `CCCC(=O)NC(c1ccco1)c1cc([N+](=O)[O-])c2cccnc2c1O` (stereo not drawn), the IC50 is 25.4 µM.
The same measure for `Clc1ccc(C(c2ccccc2)N2CCNCC2)cc1` (stereo not drawn): 97.5 µM.
With `CCn1cc(C(=O)NCC(C)C)c(=O)c2cc(F)c(N3CCN(C)CC3)cc21`, the IC50 was 64.4 µM.
The same measure for `COc1cccc(-c2nnc(NC(=O)c3ccc(Cl)s3)o2)c1`: 45.7 µM; for `Clc1ccc(/C=C/c2ncc[nH]2)c(Cl)c1`: 32.5 µM.
Turning to `CCCCOc1ccc(C(=O)NNC(=S)NC(=O)CC)cc1`, the IC50 was 33.6 µM.
In the case of `O=C(Nc1nnc(C(F)(F)F)s1)c1ccc(Br)s1`, the IC50 was 137 µM.
The same measure for `Cc1ccc(C(=O)NCCN2C3=NC[C@@H](Cc4ccccc4)N3C[C@H]2Cc2ccc(O)cc2)cc1Br`: 35.8 µM; for `CC1(C)N=C(N)NC(Nc2cccc(Br)c2)=N1`: 72.5 µM; for `CCn1cnc2cc(NCc3ccc(Br)cc3)ccc21`: 138 µM.
The same measure for `CN1CCN(/N=C/c2c3ccccc3c(Cl)c3ccccc23)CC1`: 73.5 µM; for `CCCCc1ccc(NC2=NCCCS2)cc1`: 80.5 µM; for `CN1CCN(C(c2ccc(Cl)cc2)c2cc(Cl)c3cccnc3c2O)CC1` (stereo not drawn): 19.7 µM.
As for `COc1ccc(Nc2cc(C)c3c(O)cccc3n2)cc1`, the IC50 is 24.9 µM.
Next, `C#CCOCCOCCOCCNc1nc(N2CCN(C(=O)CCCCCCCCCCNC(=O)[C@@H](CCSC)n3cc(CCO)nn3)CC2)nc(N2CCN(C(=O)CCCCCCCCCCNC(=O)[C@H]([C@@H](C)CC)n3cc(CCCCN=C(N)N)nn3)CC2)n1`: 83.1 µM; `Oc1c(CN2CCCCC2)cc(Br)c2cccnc12`: 15.7 µM; `Cc1ccc2cc(CN(CCN(C)C)C(=O)Nc3ccc(Cl)cc3)c(=O)[nH]c2c1`: 50.3 µM.
Next, `Cc1nc2c(=O)n(C)c(=O)nc-2n(C)n1`: 2.32 µM; `C[C@H]1c2cccc(O)c2C(O)=C2C(=O)C3(O)C(O)=C(C(N)=O)C(=O)[C@@H](N(C)C)[C@@H]3[C@@H](O)[C@@H]21` (stereo partly drawn): 0.82 µM; `NS(=O)(=O)OCCCc1ccc(C(F)(F)F)cc1`: 145 µM.
Take `O=C(N/N=C/c1ccc([N+](=O)[O-])o1)C(O)c1ccccc1` (stereo not drawn): the IC50 was 37.4 µM.
Take `CN(C)CCCNc1c2ccccc2nc2ccccc12`: the IC50 is 40.7 µM.
With `NC(=O)c1ccc(N=C2C(=O)Nc3ccc([N+](=O)[O-])cc32)cc1`, the IC50 was 72.8 µM.
`Oc1ccc(C[C@H]2CNCCN2CCCCC2CCCCC2)cc1`: the IC50 was 70.5 µM.
For the compound `COc1ccc(C2NCCc3c2[nH]c2ccccc32)cc1COc1ccc(F)cc1` (stereo not drawn), the IC50 is 35.1 µM.
The same measure for `COc1ccc(/C=C/c2cc[n+](C(=O)Cc3ccccc3)cc2)cc1`: 65.3 µM; for `CN1CC(C(=O)c2ccc(Cl)cc2)C(c2ccc(Cl)cc2Cl)C1` (stereo not drawn): 23.6 µM; for `Fc1ccc(Nc2ccnc(Nc3ccc(F)cc3)n2)cc1`: 24.8 µM.
As for `Nc1[nH]ncc1-c1ccccc1`, the IC50 is 48 µM.
With `O=c1[nH]cc(F)c(=O)[nH]1`, the IC50 was 2.53 µM.
